According to patent US20260125387A1, “(R)-N-ETHYL-5-FLUORO-N-ISOPROPYL-2-((5-(2-(6-((2-METHOXYETHYL)(METHYL)AMINO)-2-METHYLHEXAN-3-YL)-2,6-DIAZASPIRO[3.4]OCTAN-6-YL)-1,2,4-TRIAZIN-6-YL)OXY)BENZAMIDE BESYLATE SALT” (Janssen Pharmaceutica NV, priority 2021, published 2026):
pIC50: −log10 of the molar value. Where a name gives a salt, the structure may show the parent alone.

What was measured:
[1] = system: human pluripotent stem cell-derived cardiomyocytes (iCell Cardiomyocytes2); experiment: Ca2+-fluorescence assay in hSC-derived cardiomyocytes (CTCM human), hazard scoring; assay type: cell-based; parameters: key to Hazard scoring, Color @ 0.1 μM / Hazard scoring, Color @ 0.2 μM / Hazard scoring, Color @ 0.5 μM / Hazard scoring, Color @ 1 μM / Hazard scoring, Color @ 2.5 μM / Hazard scoring, Color @ 5 μM / Hazard scoring, Color @ 0.3 μM / Hazard scoring, Color @ 3 μM / Hazard scoring, Color @ 10 μM: Green: No concern; Yellow: Low concern; Red: High concern; Black: Very high concern due to arrhythmic events
Experimental: 7) Cardio-Electrophysiological Effects of the Testing Compounds in Synchronously Beating Human Pluripotent Stem Cell-Derived Cardiomyocytes (hSC-CMs) Using a Ca^2+-Fluorescence Assay (CTCM human)
Compounds were tested in the 96-well plates.
Compounds were tested at 0.1 μM, 0.2 μM, 0.5 μM, 1 μM, 2.5 μM and 5 μM (n=4 per dose) on Cor.4U®-Cardiomyocytes or on iCell® Cardiomyocytes2.
Alternatively, compounds were tested at 0.1 μM, 0.3 μM; 1 μM, 3 μM, 10 μM and 30 μM (n=4 per dose) mostly on iCell® Cardiomyocytes2.
Vehicle control: Dimethylsulfoxide (DMSO). The solutions of the compound in DMSO or its solvent (final concentration of 0.1% DMSO; n=8).
Tested compounds were dissolved in DMSO at 1000-fold the intended concentrations. A compound “mother-plate” was made, containing the test compounds and positive and negative controls at 1000-fold the final concentrations. At the experiment day, these stock solutions were diluted with Tyrode (Sigma), supplemented with 10 mM HEPES (Gibco), to 2-fold the intended concentration (in round bottom compound plates). Final DMSO concentration in test solutions and vehicle control was 0.1%.
hSC-CMs (Cor.4U® Cardiomyocytes) were obtained from CDI (Ncardia, Germany). Cells are pre-plated and seeded in fibronectin-coated 96-well plates at a density suited to form a monolayer and maintained in culture in a stage incubator (37° C., 5% CO2), according to the instructions of the cell provider.
Second line hSC derived cardiomyocyte called iCell® Cardiomyocytes2 were purchased from FUJIFILM Cellular Dynamics (USA). The experiments with test drugs are carried out 5 to 7 days after plating the cells onto the plate to have a living, beating monolayer of hiPSC-derived cardiomyocytes. The beating monolayer in 96-well-plates are normally taken from 2 Vials of frozen iCell® Cardiomyocytes2 (≈5 million cells/vial), which will be plated onto three 96-well plates (≈50K/well).
At least one hour before the start of the experiments the normal cell medium was replaced with Tyrode solution with Calcium dye (see below).
Cal 520 dye (AAT Bioquest) was dissolved in 11 ml of Tyrode supplemented with 10 mM HEPES and warmed up to 37 C before adding to the cells.
35 μl cell culture medium was removed from each well and replaced with 35 μl of pre-warmed Cal 520 dye solution and cell plate was incubated for 45 min at 37° C./5% CO2. Cells were incubated for 5 min at 37° C.
Spontaneous electrical activity is recorded, using Cal520™ (AAT Bioquest) calcium fluorescence-dye signaling. This dye integrates the total intracellular calcium activity over the whole well. A bottle of Cal520 dye (50 μg, MW: 1103/mol) is dissolved with 50 μl DMSO as a stock solution of 0.9 mM. 50 μL of the stock solution of the dye was added to 10 ml Tryodes solution to have dye concentration of 4.5 μM. Subsequently, 35 μl of this dye solution was added into each well, to have a final dye concentration of 1.58 μM. The current dye protocol on this CTCM human assay was established recently (Ivan Kopljar et al, Journal of Pharmacological and toxicological methods 2018. 91: 80-86; Lu et al., Tox Sci 2019. 170 (2): 345-356).
Fluorescent signals (Ca^2+ transient morphology) were measured using the Functional Drug Screen System (FDSS/pCell; Hamamatsu, Japan) and the recordings were subsequently analyzed off-line, using appropriate software e.g. Notocord.
The cell plate was loaded into the FDSS/pCell for a test run: Ca^2+ transients were measured for 4 minutes to check for synchronous beating of the cardiomyocytes in each well. All 96 wells were measured simultaneously (sampling interval: 0.06 s, short exposure time: 10 ms; excitation wavelength 480 nm; emission wavelength 540 nm; FDSS/pCell warmed to 37° C.).
During the compound addition step, 100 μl of the respective double-concentrated test solutions was pipetted into each well simultaneously.
Data were analyzed off-line using appropriate software e.g. Notocord-Hem (version 4.3). […]

[2] = Stability experiments under stress conditions (UHPLC purity, XRD); assay type: physicochemical; settings: for XRD after stress: Reference Crystalline, form A
[3] = system: KO-52 cells; experiment: Proliferation assay (spheroid, day 8 confluence), KO-52 control cell line; assay type: cell-based; settings: Homo sapiens; 8 days; read-out: spheroid assay_OneTime KO-52 IC50
Experimental: The anti-proliferative effect of menin/MLL protein/protein interaction inhibitor test compounds was assessed in human leukemia cell lines. The cell line MOLM-14 harbors a MLL translocation and expresses the MLL fusion protein MLL-AF9, respectively, as well as the wildtype protein from the second allele. OCI-AML3 cells that carry the NPM1c gene mutation were also tested. […] KO-52 was used as a control cell line containing two MLL (KMT2A) wildtype alleles in order to exclude compounds that display general cytotoxic effects.
KO-52 and OCI-AML3 cell lines were propagated in alpha-MEM (Sigma Aldrich) supplemented with 20% heat-inactivated fetal bovine serum (HyClone), 2 mM L-glutamine (Sigma Aldrich) and 50 μg/ml gentamycin (Gibco).
In order to assess the anti-proliferative effects, 200 MOLM-14 cells, 200 OCI-AML3 cells or 300 KO-52 cells were seeded in 200 μl media per well in 96-well round bottom, ultra-low attachment plates (Costar, catalogue number 7007). […] Spheroid like growth was measured in real-time by live-cell imaging (IncuCyteZOOM, Essenbio, 4× objective) acquiring images at day 8. Confluence (%) as a measure of spheroid size was determined using an integrated analysis tool.
In order to determine the effect of the test compounds over time, the confluence in each well as a measure of spheroid size, was calculated. […]

[4] = system: MOLM-14 cells; experiment: Proliferation assay (spheroid, day 8 confluence), MOLM-14; assay type: cell-based; settings: Homo sapiens, 8 days, read-out: spheroid assay_OneTime MOLM-14 IC50
[5] = system: OCI-AML3 tumors (disseminated, IV); experiment: Efficacy study in disseminated OCI-AML3 model (survival); assay type: in vivo, mouse; settings: vehicle control 38.5 days
Experimental: Doses were adjusted by individual body weight each day.
Female SCID beige mice (CB17.Cg-PrkdcscidLystbg-J/Crl/−) were used when they were approximately 6 to 8 weeks of age and weighed approximately 25 g. All animals could acclimate and recover from any shipping-related stress for a minimum of 7 days prior to experimental use. Autoclaved water and irradiated food were provided ad libitum, and the animals were maintained on a 12 hour light and dark cycle. Cages, bedding, and water bottles were autoclaved before use and changed weekly. The tissue culture and cell injection reagents are summarized below in Table 14.
Human AML cell line OCI-AML3 was cultured at 37° C., 5% CO2 in the indicated complete culture media (MEM Alpha+20% HI—FBS (Heat-Inactivated Fetal Bovine Serum)+2 mM L-glutamine+50 ug/ml Gentamycin). […]
Animals were monitored daily for clinical signs related to either compound toxicity or tumor burden (i.e., hind limb paralysis, lethargy, etc.).
Median survival was determined utilizing Kaplan-Meier survival analysis. […]
Statistical significance for body weights was evaluated as described above. Statistical significance was evaluated for Kaplan-Meier survival plots comparing therapeutic treatment group vs. appropriate vehicle-treated control using log-rank (Mantel-Cox) test in R software version 3.4.2. […]

[6] = iCell Cardiomyocytes2, 30 min incubation
[7] = efficacious dose in mouse xenograft models of 30 mpk, (mouse, human)

Q: Which results are given for `CCN(C(=O)c1cc(F)ccc1Oc1nncnc1N1CCC2(C1)CN([C@H](CCCN(C)CCOC)C(C)C)C2)C(C)C` [Compound A1, (R)—N-ethyl-5-fluoro-N-isopropyl-2-((5-(2-(6-((2-methoxyethyl)(methyl)-amino)-2-methylhexan-3-yl)-2,6-diazaspiro[3.4]octan-6-yl)-1,2,4-triazin-6-yl)oxy)-benzanilide 0.2 HCl·x H2O (x=2-3)]?
A: Hazard scoring, Color @ 0.1 μM [1, 6]: Green; Hazard scoring, Color @ 0.3 μM ([1]; 0.3 μM, iCell Cardiomyocytes2, 30 min incubation): Green; Hazard scoring, Color @ 1 μM [1, 6]: Green; Hazard scoring, Color @ 3 μM ([1]; 3 μM, iCell Cardiomyocytes2, 30 min incubation): Green; Hazard scoring, Color @ 10 μM ([1]; 10 μM, iCell Cardiomyocytes2, 30 min incubation): Green; Hazard scoring, Color @ 30 μM ([1]; 30 μM, iCell Cardiomyocytes2, 30 min incubation): yellow; Margin CTCM human 10 μM vs free Cmax [1, 7]: > 16; Margin CTCM human 30 μM vs free Cmax [1, 7]: > 45

Q: Which “Besylate salt Purity after stress” value ([2]; 50° C./10% RH, 7 days, Reference 99.65) does the source give for `CCN(C(=O)c1cc(F)ccc1Oc1nncnc1N1CCC2(C1)CN([C@H](CCCN(C)CCOC)C(C)C)C2)C(C)C` [Compound A4, (R)—N-ethyl-5-fluoro-N-isopropyl-2-((5-(2-(6-((2-methoxyethyl)(methyl)amino)-2-methylhexan-3-yl)-2,6-diazaspiro[3.4]octan-6-yl)-1,2,4-triazin-6-yl)oxy)benzamide bis-besylate salt hydrate] here?
A: Its value is 99.64.

Q: What about the “Besylate salt Purity after stress” value ([2]; 50° C./10% RH, 14 days, Reference 99.65) of the same molecule?
A: Its value is 99.62.

Q: What about the “Besylate salt Purity after stress” value ([2]; 50° C./30% RH, 21 days, Reference 99.21) of the same molecule?
A: Its value is 99.32.

Q: And the XRD after stress ([2]; 50° C./30% RH, 21 days)?
A: The XRD after stress was “Complies to ref”.

Q: What about the “Besylate salt Purity after stress” value ([2]; 50° C./50% RH, 7 days, Reference 99.65) of the same molecule?
A: The value was 99.65.

Q: And the “Besylate salt Purity after stress” value ([2]; 50° C./50% RH, 14 days, Reference 99.65)?
A: Its value is 99.66.

Q: What about the “Besylate salt Purity after stress” value ([2]; 50° C./75% RH, 21 days, Reference 99.21) of the same molecule?
A: Its value is 99.36.

Q: What about the XRD after stress ([2]; 50° C./75% RH, 21 days) of the same molecule?
A: Its XRD after stress is “Complies to ref”.

Q: And the “chemical and physical stability (UHPLC, XRD)” value ([2]; under evaluated stress conditions)?
A: The value was “chemically and physically stable”.

Q: What about the pIC50 [3] of the same molecule?
A: The pIC50 was 5.26.

Q: What about the pIC50 [4] of the same molecule?
A: The pIC50 was 8.10.

Q: What does the source list for `CCN(C(=O)c1cc(F)ccc1Oc1nncnc1N1CCC2(C1)CN([C@H](CCCN(C)CCOC)C(C)C)C2)C(C)C` [Compound A3, (R)—N-ethyl-5-fluoro-N-isopropyl-2-((5-(2-(6-((2-methoxyethyl) (methyl)amino)-2-methylhexan-3-yl)-2,6-diazaspiro[3.4]octan-6-yl)-1,2,4-triazin-6-yl)oxy) benzamide oxalate]?
A: median days of survival ([5]; 30 mg/kg PO daily for 28 days): 75.5 days; median days of survival ([5]; 50 mg/kg PO daily for 28 days): 58.5 days; Hazard scoring, Color @ 0.1 μM [1, 6]: Green; Hazard scoring, Color @ 0.2 μM ([1]; 0.2 μM, iCell Cardiomyocytes2, 30 min incubation): Green; Hazard scoring, Color @ 0.5 μM ([1]; 0.5 μM, iCell Cardiomyocytes2, 30 min incubation): Green; Hazard scoring, Color @ 1 μM [1, 6]: Green; Hazard scoring, Color @ 2.5 μM ([1]; 2.5 μM, iCell Cardiomyocytes2, 30 min incubation): Green; Hazard scoring, Color @ 5 μM ([1]; 5 μM, iCell Cardiomyocytes2, 30 min incubation): Green
